From patent publication US12227495B2, “Herbicidal compounds” (SYNGENTA CROP PROTECTION AG, priority 2018, dated 2025)

Legend:
Assay type in all cases: in vivo
Conditions in all cases: evaluated after 13 days
[1] = system: Amaranthus retoflexus (AMARE); assay: Post-emergence herbicide test, glasshouse, percentage damage
Method in brief: (§1)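 Damage was rated 13 days after spraying on a five-point scale (1=0-20% to 5=81-100%). The compound was applied at 500 g/ha unless stated otherwise, in acetone/water 50:50 plus 0.5% Tween 20, on day 1 (pre-emergence) or day 8 (post-emergence) after sowing. Plants were kept under glasshouse conditions of 24/16° C day/night and 14 h light.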

[2] = system: Echinochloa crus-galli (ECHCG); assay: as above
Method in brief: as §1

[3] = system: Ipomoea hederacea (IPOHE); assay: as above
Method in brief: as §1

Lolium perenne (LOLPE) [4] = assay: as above
Method in brief: as §1

Setaria faberi (SETFA) [5] = assay: as above
Method in brief: as §1

Solanum nigrum (SOLNI) [6] = assay: as above
Method in brief: as §1

[7] = system: Amaranthus retoflexus (AMARE); assay: Pre-emergence herbicide test, glasshouse, percentage damage
Method in brief: as §1

[8] = system: Echinochloa crus-galli (ECHCG); assay: as above
Method in brief: as §1

[9] = system: Ipomoea hederacea (IPOHE); assay: as above
Method in brief: as §1

Lolium perenne (LOLPE) [10] = assay: as above
Method in brief: as §1

Setaria faberi (SETFA) [11] = assay: as above
Method in brief: as §1

Solanum nigrum (SOLNI) [12] = assay: as above
Method in brief: as §1

Row | SMILES | percentage damage caused to the plant, AMARE ([1]; 1000 g/ha) | percentage damage caused to the plant, ECHCG ([2]; 1000 g/ha) | percentage damage caused to the plant, IPOHE ([3]; 1000 g/ha) | percentage damage caused to the plant, LOLPE (Lolium perenne (LOLPE) [4]; 1000 g/ha) | percentage damage caused to the plant, SETFA (Setaria faberi (SETFA) [5]; 1000 g/ha) | percentage damage caused to the plant, SOLNI (Solanum nigrum (SOLNI) [6]; 1000 g/ha) | Pre-emergence Test AMARE percentage damage (five point scale) ([7]; rate 1000 g/ha) | Pre-emergence Test ECHCG percentage damage (five point scale) ([8]; rate 1000 g/ha) | Pre-emergence Test IPOHE percentage damage (five point scale) ([9]; rate 1000 g/ha) | Pre-emergence Test LOLPE percentage damage (five point scale) (Lolium perenne (LOLPE) [10]; rate 1000 g/ha) | Pre-emergence Test SETFA percentage damage (five point scale) (Setaria faberi (SETFA) [11]; rate 1000 g/ha) | Pre-emergence Test SOLNI percentage damage (five point scale) (Solanum nigrum (SOLNI) [12]; rate 1000 g/ha) | further results
1 | O=[N+]([O-])c1ccc(Oc2cccc(Cl)c2-c2cc(C(F)F)no2)nc1 [Compound A108] | 5 (5=81-100%) | 4 (4=61-80%) | 3 (3=41-60%) | 4 (4=61-80%) | 4 (4=61-80%) | 4 (4=61-80%) | 4 (4=61-80%) | 5 (5=81-100%) | 1 (1=0-20%) | 5 (5=81-100%) | 5 (5=81-100%) | 4 (4=61-80%) | 
2 | Fc1cc(Cl)cnc1Oc1c(Cl)cccc1-c1cc(C(F)F)no1 [Compound A95] | 4 (4=61-80%) | 3 (3=41-60%) | 1 (1=0-20%) | 3 (3=41-60%) | 4 (4=61-80%) | 4 (4=61-80%) | 4 (4=61-80%) | 4 (4=61-80%) | 1 (1=0-20%) | 1 (1=0-20%) | 3 (3=41-60%) | 1 (1=0-20%) | 
3 | Fc1cccc(Oc2ccc(Cl)cn2)c1-c1cc(C(F)F)no1 [Compound A9] |  |  |  |  |  |  |  |  |  |  |  |  | percentage damage caused to the plant, AMARE ([1]; 500 g/ha): 5 (5=81-100%); percentage damage caused to the plant, ECHCG ([2]; 500 g/ha): 5 (5=81-100%); percentage damage caused to the plant, IPOHE ([3]; 500 g/ha): 4 (4=61-80%); percentage damage caused to the plant, LOLPE (Lolium perenne (LOLPE) [4]; 500 g/ha): 5 (5=81-100%); percentage damage caused to the plant, SETFA (Setaria faberi (SETFA) [5]; 500 g/ha): 5 (5=81-100%); percentage damage caused to the plant, SOLNI (Solanum nigrum (SOLNI) [6]; 500 g/ha): 5 (5=81-100%); Pre-emergence Test AMARE percentage damage (five point scale) ([7]; rate 500 g/ha): 5 (5=81-100%); Pre-emergence Test ECHCG percentage damage (five point scale) ([8]; rate 500 g/ha): 5 (5=81-100%); Pre-emergence Test IPOHE percentage damage (five point scale) ([9]; rate 500 g/ha): 3 (3=41-60%); Pre-emergence Test LOLPE percentage damage (five point scale) (Lolium perenne (LOLPE) [10]; rate 500 g/ha): 4 (4=61-80%); Pre-emergence Test SETFA percentage damage (five point scale) (Setaria faberi (SETFA) [11]; rate 500 g/ha): 5 (5=81-100%); Pre-emergence Test SOLNI percentage damage (five point scale) (Solanum nigrum (SOLNI) [12]; rate 500 g/ha): 5 (5=81-100%)
4 | Fc1cc(Cl)cnc1Oc1ccc(Br)c(Br)c1-n1cc(C(F)(F)F)cn1 [Compound A61] | 5 (5=81-100%) | 1 (1=0-20%) | 2 (2=21-40%) | 1 (1=0-20%) | 2 (2=21-40%) | 5 (5=81-100%) | 1 (1=0-20%) | 1 (1=0-20%) | 1 (1=0-20%) | 1 (1=0-20%) | 2 (2=21-40%) | 1 (1=0-20%) | 
5 | N#Cc1cnn(-c2ccccc2Oc2ncc(Cl)cc2F)c1 [Compound A26] | 5 (5=81-100%) | 5 (5=81-100%) | 3 (3=41-60%) | 3 (3=41-60%) | 5 (5=81-100%) | 5 (5=81-100%) | 5 (5=81-100%) | 5 (5=81-100%) | 4 (4=61-80%) | 5 (5=81-100%) | 5 (5=81-100%) | 5 (5=81-100%) | 
6 | N#Cc1cccc(Oc2ncc(Cl)cc2F)c1-c1cc(C(F)F)no1 [Compound A162] | 5 (5=81-100%) | 4 (4=61-80%) | 5 (5=81-100%) | 5 (5=81-100%) | 5 (5=81-100%) | 5 (5=81-100%) | 5 (5=81-100%) | 5 (5=81-100%) | 5 (5=81-100%) | 5 (5=81-100%) | 5 (5=81-100%) | 4 (4=61-80%) | 
7 | Fc1cc(Cl)cnc1Oc1ccccc1-n1cc(Cl)cn1 [Compound A24, 5-chloro-2-[2-(4-chloropyrazol-1-yl)phenoxy]-3-fluoro-pyridine] | 4 (4=61-80%) | 4 (4=61-80%) | 3 (3=41-60%) | 3 (3=41-60%) | 4 (4=61-80%) | 4 (4=61-80%) | 5 (5=81-100%) | 5 (5=81-100%) | 3 (3=41-60%) | 4 (4=61-80%) | 5 (5=81-100%) | 3 (3=41-60%) | 
8 | FC(F)c1cc(-c2c(Cl)cccc2Oc2ccc(Br)cn2)on1 [Compound A119] | 5 (5=81-100%) | 4 (4=61-80%) | 5 (5=81-100%) | 5 (5=81-100%) | 5 (5=81-100%) | 5 (5=81-100%) | 5 (5=81-100%) | 5 (5=81-100%) | 4 (4=61-80%) | 5 (5=81-100%) | 5 (5=81-100%) | 4 (4=61-80%) | 
9 | Fc1cc(Cl)cnc1Oc1ccccc1-n1cc(Br)cn1 [Compound A27] |  |  |  |  |  |  |  |  |  |  |  |  | percentage damage caused to the plant, AMARE ([1]; 250 g/ha): 4 (4=61-80%); percentage damage caused to the plant, ECHCG ([2]; 250 g/ha): 5 (5=81-100%); percentage damage caused to the plant, IPOHE ([3]; 250 g/ha): 2 (2=21-40%); percentage damage caused to the plant, LOLPE (Lolium perenne (LOLPE) [4]; 250 g/ha): 2 (2=21-40%); percentage damage caused to the plant, SETFA (Setaria faberi (SETFA) [5]; 250 g/ha): 5 (5=81-100%); percentage damage caused to the plant, SOLNI (Solanum nigrum (SOLNI) [6]; 250 g/ha): 5 (5=81-100%); Pre-emergence Test AMARE percentage damage (five point scale) ([7]; rate 250 g/ha): 5 (5=81-100%); Pre-emergence Test ECHCG percentage damage (five point scale) ([8]; rate 250 g/ha): 5 (5=81-100%); Pre-emergence Test IPOHE percentage damage (five point scale) ([9]; rate 250 g/ha): 1 (1=0-20%); Pre-emergence Test LOLPE percentage damage (five point scale) (Lolium perenne (LOLPE) [10]; rate 250 g/ha): 3 (3=41-60%); Pre-emergence Test SETFA percentage damage (five point scale) (Setaria faberi (SETFA) [11]; rate 250 g/ha): 4 (4=61-80%); Pre-emergence Test SOLNI percentage damage (five point scale) (Solanum nigrum (SOLNI) [12]; rate 250 g/ha): 5 (5=81-100%)
10 | FC(F)c1cc(-c2c(Cl)cccc2Oc2cc(C(F)(F)F)ccn2)on1 [Compound A112] | 4 (4=61-80%) | 3 (3=41-60%) | 3 (3=41-60%) | 3 (3=41-60%) | 4 (4=61-80%) | 4 (4=61-80%) | 5 (5=81-100%) | 4 (4=61-80%) | 1 (1=0-20%) | 3 (3=41-60%) | 5 (5=81-100%) | 2 (2=21-40%) | 
11 | Fc1cccc(Oc2ccc(Br)cn2)c1-c1cc(C(F)F)no1 [Compound A41] | 5 (5=81-100%) | 5 (5=81-100%) | 5 (5=81-100%) | 5 (5=81-100%) | 5 (5=81-100%) | 5 (5=81-100%) | 5 (5=81-100%) | 5 (5=81-100%) | 3 (3=41-60%) | 5 (5=81-100%) | 5 (5=81-100%) | 5 (5=81-100%) | 
12 | FC(F)c1cc(-c2c(Br)cccc2Oc2ccc(C(F)(F)F)cn2)on1 [Compound A90] | 5 (5=81-100%) | 4 (4=61-80%) | 4 (4=61-80%) | 4 (4=61-80%) | 5 (5=81-100%) | 4 (4=61-80%) | 4 (4=61-80%) | 5 (5=81-100%) | 3 (3=41-60%) | 5 (5=81-100%) | 5 (5=81-100%) | 4 (4=61-80%) | 
